Results published in the supplement of paper PMC11451515.

System: P12-Ichikawa
Test: cell viability relative to DMSO control; higher = less cytotoxic
Conditions: 48 h
Method in brief: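 Before seeding, each leukemia line was adapted for at least four passages in each medium. NOMO1 or SEM cells (500 cells/well) and P12-Ichikawa cells (1000 cells/well) went into 1536-well plates at 5 μl, then received library compounds in DMSO by pin dosing across 11 threefold concentrations, 47 μM to 0.79 nM. Readout was CellTiter-Glo One luminescence after 48 h at 37°C, and viability is given as a per-plate percentage of DMSO wells, with cell-free wells as background.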

[1] = HPLM + 10% dialyzed FBS, 0.000781 µM
[2] = HPLM + 10% dialyzed FBS, 0.00234 µM
[3] = HPLM + 10% dialyzed FBS, 0.00702 µM
[4] = HPLM + 10% dialyzed FBS, 0.0211 µM
[5] = HPLM + 10% dialyzed FBS, 0.0632 µM
[6] = HPLM + 10% dialyzed FBS, 0.19 µM
[7] = HPLM + 10% dialyzed FBS, 0.569 µM
[8] = HPLM + 10% dialyzed FBS, 1.71 µM
[9] = HPLM + 10% dialyzed FBS, 5.12 µM
[10] = HPLM + 10% dialyzed FBS, 15.4 µM
[11] = HPLM + 10% dialyzed FBS, 46.1 µM
[12] = RPMI 5 mM glucose + 10% FBS, 0.000781 µM
[13] = RPMI 5 mM glucose + 10% FBS, 0.00234 µM
[14] = RPMI 5 mM glucose + 10% FBS, 0.00702 µM
[15] = RPMI 5 mM glucose + 10% FBS, 0.0211 µM
[16] = RPMI 5 mM glucose + 10% FBS, 0.0632 µM
[17] = RPMI 5 mM glucose + 10% FBS, 0.19 µM
[18] = RPMI 5 mM glucose + 10% FBS, 0.569 µM
[19] = RPMI 5 mM glucose + 10% FBS, 1.71 µM
[20] = RPMI 5 mM glucose + 10% FBS, 5.12 µM
[21] = RPMI 5 mM glucose + 10% FBS, 15.4 µM
[22] = RPMI 5 mM glucose + 10% FBS, 46.1 µM
[23] = RPMI 5 mM glucose + 10% dialyzed FBS, 0.000781 µM
[24] = RPMI 5 mM glucose + 10% dialyzed FBS, 0.00234 µM
[25] = RPMI 5 mM glucose + 10% dialyzed FBS, 0.00702 µM
[26] = RPMI 5 mM glucose + 10% dialyzed FBS, 0.0211 µM
[27] = RPMI 5 mM glucose + 10% dialyzed FBS, 0.0632 µM
[28] = RPMI 5 mM glucose + 10% dialyzed FBS, 0.19 µM
[29] = RPMI 5 mM glucose + 10% dialyzed FBS, 0.569 µM
[30] = RPMI 5 mM glucose + 10% dialyzed FBS, 1.71 µM
[31] = RPMI 5 mM glucose + 10% dialyzed FBS, 5.12 µM
[32] = RPMI 5 mM glucose + 10% dialyzed FBS, 15.4 µM
[33] = RPMI 5 mM glucose + 10% dialyzed FBS, 46.1 µM

Structure (SMILES) | cell viability [1] | cell viability [2] | cell viability [3] | cell viability [4] | cell viability [5] | cell viability [6] | cell viability [7] | cell viability [8] | cell viability [9] | cell viability [10] | cell viability [11] | cell viability [12] | cell viability [13] | cell viability [14] | cell viability [15] | cell viability [16] | cell viability [17] | cell viability [18] | cell viability [19] | cell viability [20] | cell viability [21] | cell viability [22] | cell viability [23] | cell viability [24] | cell viability [25] | cell viability [26] | cell viability [27] | cell viability [28] | cell viability [29] | cell viability [30] | cell viability [31] | cell viability [32] | cell viability [33]
Cc1[nH]c(/C=C2\C(=O)Nc3ccccc32)c(C)c1CCC(=O)O | 95.3% | 101% | 99.3% | 105% | 111% | 114% | 88.7% | 104% | 73.1% | 32.2% | 6.87% | 105% | 103% | 93.9% | 110% | 110% | 118% | 87.1% | 106% | 72.9% | 42% | 7.11% | 102% | 105% | 113% | 110% | 113% | 112% | 91.1% | 101% | 82.3% | 65.2% | 11.2%
Cc1cc(Nc2nc(N[C@@H](C)c3ccc(F)cc3)c(C#N)cc2F)n[nH]1 | 105% | 101% | 96.7% | 105% | 102% | 102% | 101% | 94.2% | 22.1% | 27.6% | 56.8% | 104% | 103% | 106% | 105% | 98.9% | 100% | 107% | 93% | 23% | 44.7% | 53.1% | 96.7% | 89.5% | 104% | 97.4% | 95.6% | 104% | 87.5% | 84.4% | 34.2% | 45.4% | 54.8%
CN1\C(=C(\O)C2=C(C=CC=C2)[S+]1([O-])=O)C(=O)NC3=CC=CC=N3 | 96.6% | 104% | 109% | 119% | 107% | 110% | 70.9% | 101% | 73.1% | 30.5% | 12.2% | 104% | 111% | 114% | 105% | 108% | 109% | 82.4% | 105% | 70.2% | 42% | 10.4% | 96.9% | 97.7% | 99.5% | 112% | 105% | 106% | 85.7% | 106% | 81.9% | 60.1% | 12.4%
CC[C@@]1(O)C(=O)OCC/2=C1/C=C3\N(CC4=CC5=CC(=CC=C5N=C34)O)C2=O |  |  |  |  |  |  |  |  |  |  |  | 122% | 120% | 117% | 91.5% | 11.4% | 9.55% | 8.05% | 7.2% | 6.2% | 5.86% | 6.96% | 115% | 127% | 106% | 88.7% | 16.9% | 12.1% | 10.2% | 6.53% | 6.88% | 6.54% | 8.98%
O=C(Nc1ncc(-c2cc(C(F)F)nn2-c2c(Cl)cccc2Cl)s1)C1CC1 | 116% | 122% | 123% | 131% | 130% | 129% | 126% | 14.2% | 18.3% | 11% | 14.6% |  |  |  |  |  |  |  |  |  |  |  |  |  |  |  |  |  |  |  |  |  | 
CN1C(=O)C[C@H](C(=O)N[C@@H](Cc2cnc[nH]2)C(=O)N2CCC[C@H]2C(N)=O)NC1=O |  |  |  |  |  |  |  |  |  |  |  |  |  |  |  |  |  |  |  |  |  |  | 114% | 128% | 121% | 115% | 132% | 123% | 118% | 120% | 119% | 119% | 90.6%
O=C(c1ccc(F)c(F)c1Nc1ccc(I)cc1F)N1CC(O)([C@@H]2CCCCN2)C1 | 93.9% | 102% | 102% | 111% | 109% | 108% | 100% | 99% | 93.6% | 12.6% | 11.1% | 97.3% | 102% | 112% | 97.8% | 101% | 104% | 87.5% | 93% | 82.7% | 12.8% | 7.93% | 88.6% | 114% | 115% | 116% | 111% | 108% | 114% | 105% | 96.2% | 36.8% | 14.8%
CN[C@@H]1Cc2cccc3[nH]c(=O)n(c23)C1 | 124% | 123% | 114% | 115% | 122% | 117% | 108% | 117% | 108% | 106% | 111% |  |  |  |  |  |  |  |  |  |  |  | 122% | 122% | 116% | 130% | 117% | 123% | 115% | 109% | 108% | 111% | 105%
COCCOc1nc(-c2ccc(Cl)c(Cl)c2)n(-c2ccc(NC(=O)CCl)cc2)n1 | 96.6% | 97.3% | 102% | 103% | 103% | 106% | 99.1% | 104% | 84.4% | 99.8% | 98.5% | 89.4% | 101% | 90.1% | 104% | 98.9% | 101% | 93.4% | 107% | 79.7% | 79.9% | 88.7% | 84.1% | 92.2% | 86.1% | 94.6% | 91.2% | 93.7% | 98.9% | 86.4% | 76% | 77.8% | 86.9%
CN(C)CCOc1ccc(-c2nc(-c3ccncc3)c(-c3ccc4c(c3)CC/C4=N\O)[nH]2)cc1 | 103% | 107% | 106% | 100% | 103% | 109% | 106% | 100% | 93.7% | 90.6% | 65.9% | 113% | 108% | 109% | 110% | 109% | 107% | 109% | 103% | 94.5% | 96.4% | 65.6% | 109% | 104% | 114% | 101% | 106% | 105% | 109% | 104% | 96.8% | 84% | 66.7%
CC(/C=C/C(=O)NO)=C\[C@@H](C)C(=O)c1ccc(N(C)C)cc1 | 111% | 115% | 114% | 107% | 109% | 114% | 90.5% | 48.4% | 3.82% | 1.6% | 0.388% | 116% | 116% | 119% | 114% | 119% | 111% | 98.3% | 28.3% | 2.14% | 1.05% | 0.409% | 107% | 113% | 109% | 116% | 110% | 107% | 91.8% | 29.8% | 2.07% | 1.68% | 0.629%
COc1ccc([C@@H]2CC(=O)c3c(O)cc(O[C@@H]4O[C@H](CO[C@@H]5O[C@@H](C)[C@H](O)[C@@H](O)[C@H]5O)[C@@H](O)[C@H](O)[C@H]4O)cc3O2)cc1O | 97.9% | 99% | 116% | 118% | 113% | 116% | 107% | 116% | 114% | 111% | 116% | 96.2% | 101% | 110% | 113% | 107% | 114% | 111% | 106% | 107% | 116% | 109% | 104% | 111% | 109% | 108% | 114% | 111% | 113% | 111% | 108% | 115% | 109%
NC(=O)C1CCCc2c1[nH]c1ccc(Cl)cc21 (stereo not drawn) | 112% | 112% | 113% | 114% | 115% | 110% | 105% | 102% | 83.4% | 46.2% | 38.2% | 107% | 111% | 111% | 104% | 108% | 112% | 109% | 109% | 103% | 59.8% | 32.3% | 114% | 101% | 112% | 107% | 112% | 106% | 111% | 94.4% | 93.8% | 48.2% | 18.3%
Cc1cnc(C(=O)O)c[n+]1[O-] | 115% | 120% | 112% | 115% | 112% | 116% | 114% | 119% | 111% | 107% | 105% | 122% | 128% | 124% | 126% | 120% | 127% | 125% | 127% | 116% | 119% | 100% | 121% | 130% | 123% | 111% | 117% | 123% | 120% | 108% | 115% | 109% | 102%
O=C1Nc2ccc(I)cc2/C1=C/c1cc(Br)c(O)c(Br)c1 | 103% | 100% | 103% | 105% | 109% | 105% | 108% | 102% | 102% | 98.2% | 86.4% | 99% | 110% | 106% | 103% | 101% | 104% | 102% | 104% | 101% | 96.7% | 79% | 106% | 111% | 110% | 107% | 103% | 111% | 108% | 101% | 100% | 93.4% | 84%
COc1cc([C@H]2Oc3cc([C@H]4Oc5cc(O)cc(O)c5C(=O)[C@@H]4O)ccc3O[C@@H]2CO)ccc1O | 108% | 118% | 106% | 109% | 118% | 119% | 112% | 110% | 105% | 99.8% | 99.8% | 113% | 112% | 125% | 109% | 113% | 104% | 98.9% | 112% | 116% | 101% | 94.2% | 102% | 109% | 115% | 105% | 111% | 106% | 103% | 101% | 96.7% | 100% | 90.1%
COc1cc2nc(N3CCN(C(=O)C4CCCO4)CC3)nc(N)c2cc1OC (stereo not drawn) | 112% | 123% | 123% | 127% | 130% | 130% | 131% | 124% | 127% | 139% | 136% |  |  |  |  |  |  |  |  |  |  |  |  |  |  |  |  |  |  |  |  |  | 
